Our source for the Ki values is BindingDB's records for patent US20240002393 (Hoffmann-La Roche, 2024).

In assay [1] the target is T1, Gamma-aminobutyric acid receptor subunit alpha-1/beta-3/gamma-2 (Homo sapiens, UniProt P14867+P18507+P28472).
T1 sequence (P14867 whole entry): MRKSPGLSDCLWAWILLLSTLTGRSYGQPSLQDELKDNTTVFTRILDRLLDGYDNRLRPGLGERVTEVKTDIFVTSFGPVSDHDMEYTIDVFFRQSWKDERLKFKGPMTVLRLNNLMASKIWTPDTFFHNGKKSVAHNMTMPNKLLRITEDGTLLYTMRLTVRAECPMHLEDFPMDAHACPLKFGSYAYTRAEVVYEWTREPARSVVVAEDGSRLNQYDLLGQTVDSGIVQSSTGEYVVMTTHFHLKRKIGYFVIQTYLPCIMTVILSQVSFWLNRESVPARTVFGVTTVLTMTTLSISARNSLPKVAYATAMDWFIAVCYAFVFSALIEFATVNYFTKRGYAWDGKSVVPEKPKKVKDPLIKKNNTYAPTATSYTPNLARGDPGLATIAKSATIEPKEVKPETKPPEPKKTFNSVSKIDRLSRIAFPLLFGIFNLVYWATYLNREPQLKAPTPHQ
T1 sequence (P18507 whole entry): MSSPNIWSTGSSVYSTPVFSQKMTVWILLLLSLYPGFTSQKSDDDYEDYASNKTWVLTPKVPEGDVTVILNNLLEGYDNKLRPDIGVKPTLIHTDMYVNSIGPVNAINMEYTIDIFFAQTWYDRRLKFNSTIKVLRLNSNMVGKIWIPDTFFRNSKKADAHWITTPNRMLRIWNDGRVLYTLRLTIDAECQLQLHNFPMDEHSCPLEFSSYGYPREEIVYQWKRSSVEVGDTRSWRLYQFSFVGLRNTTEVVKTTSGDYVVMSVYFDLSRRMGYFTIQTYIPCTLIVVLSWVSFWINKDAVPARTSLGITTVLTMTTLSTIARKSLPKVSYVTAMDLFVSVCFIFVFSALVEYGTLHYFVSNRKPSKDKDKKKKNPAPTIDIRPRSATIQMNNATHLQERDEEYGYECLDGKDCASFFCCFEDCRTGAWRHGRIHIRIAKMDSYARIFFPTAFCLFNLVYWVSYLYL
T1 sequence (P28472 whole entry): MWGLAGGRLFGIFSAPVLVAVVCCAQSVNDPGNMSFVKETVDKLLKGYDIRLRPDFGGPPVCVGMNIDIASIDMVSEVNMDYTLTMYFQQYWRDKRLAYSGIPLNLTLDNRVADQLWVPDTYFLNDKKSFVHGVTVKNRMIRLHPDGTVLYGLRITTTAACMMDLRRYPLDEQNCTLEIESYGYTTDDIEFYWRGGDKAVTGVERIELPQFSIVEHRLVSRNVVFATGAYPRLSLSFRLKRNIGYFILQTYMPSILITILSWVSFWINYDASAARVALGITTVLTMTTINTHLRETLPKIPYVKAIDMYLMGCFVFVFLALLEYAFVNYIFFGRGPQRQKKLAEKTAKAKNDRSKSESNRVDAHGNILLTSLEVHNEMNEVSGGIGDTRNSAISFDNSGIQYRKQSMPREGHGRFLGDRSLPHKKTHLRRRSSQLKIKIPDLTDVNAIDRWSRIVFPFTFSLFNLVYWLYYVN

Assay [2] addresses T2, Gamma-aminobutyric acid receptor subunit alpha-2/beta-2/gamma-1 (Human, UniProt P47869+P47870+Q8N1C3).
T2 sequence (Q8N1C3 whole entry): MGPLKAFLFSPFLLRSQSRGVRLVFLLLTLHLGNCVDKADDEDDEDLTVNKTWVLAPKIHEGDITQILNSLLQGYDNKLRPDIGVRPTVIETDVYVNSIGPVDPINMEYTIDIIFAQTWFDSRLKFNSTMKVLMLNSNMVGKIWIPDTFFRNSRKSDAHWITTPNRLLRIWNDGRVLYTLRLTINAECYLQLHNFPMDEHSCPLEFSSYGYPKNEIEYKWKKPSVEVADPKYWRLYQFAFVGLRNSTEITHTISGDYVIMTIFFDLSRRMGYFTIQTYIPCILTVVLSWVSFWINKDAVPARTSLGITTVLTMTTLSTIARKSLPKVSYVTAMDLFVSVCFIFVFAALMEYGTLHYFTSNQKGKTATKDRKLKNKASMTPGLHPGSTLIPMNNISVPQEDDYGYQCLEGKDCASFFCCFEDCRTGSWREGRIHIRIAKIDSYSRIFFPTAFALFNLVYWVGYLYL
T2 sequence (P47869 whole entry): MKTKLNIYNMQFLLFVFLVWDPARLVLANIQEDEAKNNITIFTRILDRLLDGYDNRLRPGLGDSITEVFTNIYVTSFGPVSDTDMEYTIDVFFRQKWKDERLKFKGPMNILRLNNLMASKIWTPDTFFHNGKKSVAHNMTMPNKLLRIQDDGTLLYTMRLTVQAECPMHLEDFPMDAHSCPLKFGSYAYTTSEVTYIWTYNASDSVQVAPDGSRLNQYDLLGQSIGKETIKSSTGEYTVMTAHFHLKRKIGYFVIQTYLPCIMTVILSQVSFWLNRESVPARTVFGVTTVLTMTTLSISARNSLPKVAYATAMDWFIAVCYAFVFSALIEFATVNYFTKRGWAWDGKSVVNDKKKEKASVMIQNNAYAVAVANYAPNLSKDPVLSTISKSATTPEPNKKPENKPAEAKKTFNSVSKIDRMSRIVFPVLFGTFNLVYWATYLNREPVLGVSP
T2 sequence (P47870 whole entry): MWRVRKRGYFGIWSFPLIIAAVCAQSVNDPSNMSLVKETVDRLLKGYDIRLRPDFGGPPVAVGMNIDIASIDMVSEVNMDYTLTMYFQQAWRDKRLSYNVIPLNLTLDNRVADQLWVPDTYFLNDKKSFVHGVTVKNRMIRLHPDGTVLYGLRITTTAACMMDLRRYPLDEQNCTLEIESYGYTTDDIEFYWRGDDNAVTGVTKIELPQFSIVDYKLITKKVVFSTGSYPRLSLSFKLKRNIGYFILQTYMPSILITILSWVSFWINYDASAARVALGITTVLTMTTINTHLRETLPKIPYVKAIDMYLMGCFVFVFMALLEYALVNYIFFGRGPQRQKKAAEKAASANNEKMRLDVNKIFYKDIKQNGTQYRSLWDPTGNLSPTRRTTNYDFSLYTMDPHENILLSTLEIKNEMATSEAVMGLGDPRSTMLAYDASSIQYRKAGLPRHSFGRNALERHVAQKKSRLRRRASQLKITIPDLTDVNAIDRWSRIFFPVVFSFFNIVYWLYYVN
As to the kind of experiment: Electrophysiology Assay. As to the method:
Table 2: Electrophysiological experiments were performed using the Roboocyte instrument (MultiChannelSystems, Reutlingen, Germany) on days 3 to 5 after the micro-injection of mRNA. During the experiment the oocytes were constantly superfused by a solution containing (in mM) NaCl 90, KCl 1, HEPES 5, MgCl2 1 CaCl2 1 (pH 7.4). Oocytes were impaled by two glass microelectrodes (resistance: 0.5-0.8 MΩ) which were filled with a solution containing KCl 1M+K-acetate 1.5 M and voltage-clamped to −80 mV. The recordings were performed at room temperature using the Roboocyte two-electrode voltage clamp system (Multichannelsystem). After an initial equilibration period of 1.5 min GABA was added for 1.5 min at a concentration evoking approximately 20% of a maximal current response (EC20). After another rest interval of 2.5 min GABA was again added evoking a response of similar amplitude and shape. […] Current traces were recorded at a digitization rate of 10 Hz during and shortly before and after the GABA application.

The structures appear in SMILES notation.

For the molecule `CCc1nnc2n1-c1ccc(C(F)(F)F)c(Cl)c1C(c1c(F)cccc1F)=N[C@H]2C` [US20240002393, Example 108], the Ki (as a rule, a measure of affinity in units of concentration, obtained from inhibition or displacement) in assay [1] was determined as 2370 nM; in assay [2], 47 nM.
